Our source for the IC50 values is patent US20220251081A1, “HETEROBICYCLIC INHIBITORS OF MAT2A AND METHODS OF USE FOR TREATING CANCER” (priority 2019, published 2022).

SMILES strings stand for the structures. A value given as a limit tells only on which side of the number the result lay.

Test [1] deals with HCT116 MTAP +/+. Nature of the test: Inhibition of cellular proliferation, 4 days, Cell Titer Glo, HCT116 MTAP+/+. In kind it is cell-based. The following applies: Homo sapiens, HCT-116, 96 h, IC50 score, read-out: 4 Day Relative Growth Inhibition (MTAP +/+). On the procedure: (§1) Assay for Inhibition of Cellular Proliferation
(§2) Test compound impact on cancer cell growth was assessed by treating cancer cells with compound for 4 days and then measuring proliferation using an ATP-based cell proliferation readout (Cell Titer Glo, Promega Corporation).
(§3) In a typical assay an isogenic pair of HCT116 human colon carcinoma cell lines which vary only in MTAP deletion status (HCT116 MTAP +/+ and HCT116 MTAP−/−) were plated in 96-well dishes at appropriate cell density. Following 24 hours, cells were then treated with the candidate MAT2A inhibitor. Prior to addition to cells, the compound was first serially diluted in 100% DMSO, typically as a 3-fold serial dilution starting at 500× top dose with 10 dose points including DMSO only control. Compound was then transferred to a working stock plate in cell culture media by adding 5 μL of compound in DMSO to 495 μL of cell culture media. This working stock was then added to cells via a further 5-fold dilution, by adding 25 μL of working stock to 100 μL of cells in culture media. Following compound addition, cells were incubated at 37° C./5% C02 for 4 days.
(§4) To measure inhibition of cellular proliferation, cells were allowed to equilibrate to room temperature for 30 minutes, and were then treated with 125 μL of Cell Titer Glo reagent. The plate was then covered with aluminum foil and shaken for 15 minutes to ensure complete mixing and full cell lysis. Luminescent signal was then measured using a plate-based luminometer Veritas version 1.9.2 using ATP standard curve to confirm assay reproducibility from run to run. This luminescence measure was converted to a proliferation index by subtracting from each data point the ATP luminescence signal measured from a bank (no cells) well and dividing by the ATP luminescence signal measured in 0.2% DMSO control well adjusted for signal in blank well. Compound activity was then represented as a percentage change in proliferation relative to a within-plate DMSO control against log 10 of compound concentration in molar (M) units.
A general note: In ATP-based viability assays light output follows the ATP content of the culture.

For test [2], the target named is T1, MAT2A homodimer (Homo sapiens, UniProt P31153).
T1 construct: inferred from Ni sepharose purification and imidazole elution; made in house; host or cells: Sf9 insect cells, recombinant baculovirus (Bac to Bac, pFASTBAC1 vector)
T1 sequence (P31153 whole entry): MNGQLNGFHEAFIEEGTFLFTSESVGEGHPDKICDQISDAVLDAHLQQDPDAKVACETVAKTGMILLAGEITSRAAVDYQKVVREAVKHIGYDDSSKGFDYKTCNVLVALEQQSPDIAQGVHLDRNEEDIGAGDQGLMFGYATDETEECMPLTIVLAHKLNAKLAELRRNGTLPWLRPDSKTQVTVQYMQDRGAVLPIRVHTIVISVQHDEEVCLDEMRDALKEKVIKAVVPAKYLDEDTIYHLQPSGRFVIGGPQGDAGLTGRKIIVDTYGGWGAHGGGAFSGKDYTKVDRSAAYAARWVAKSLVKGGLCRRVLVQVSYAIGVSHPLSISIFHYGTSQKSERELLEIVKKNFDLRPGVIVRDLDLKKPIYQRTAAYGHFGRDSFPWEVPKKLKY
Nature of the test: Biochemical assay: inhibition of recombinant MAT2A homodimer (phosphate release, PiColorLock Gold). The following applies: MAT2A IC50 score; read-out: Enzyme Inhibition. The protocol:
Mat2A protein was expressed by recombinant baculovirus in SF9 infected cells using the Bac to Bac system cloned into the pFASTBAC1 vector (Invitrogen, Carlsbad, Calif.). Recombinant MAT2A was isolated from the cell lysate of 150 g of infected cells using HP Ni sepharose column chromatography. Recombinant MAT2A homodimer was eluted with 250 and 500 mM imidazole, and fractions containing MAT2A were identified by sodium dodecyl sulfate polyacrylamide gel electrophoresis and pooled.
For determination of the inhibitory potency of compounds against the MAT2A homodimer, protein was diluted to 4 μg/mL in assay buffer (50 mM Tris, pH 8.0, 50 mM KCl, 15 mM MgCl2, 0.3 mM EDTA, 0.005% [w/v] bovine serum albumin [BSA]). Test compound was prepared in 100% dimethyl sulfoxide (DMSO) at 50× the desired final concentration. A 1 μL volume of compound dilution was added to 40 μL of enzyme dilution and the mixture was allowed to equilibrate for 60 minutes at 25° C. The enzymatic assay was initiated by the addition of 10 μL of substrate mix (500 μM ATP, pH 7.0, 40 μM L-methionine in 1× assay buffer), and the mixture was incubated for a further 60 minutes at 25° C. The reaction was halted and the liberated phosphate released by the enzyme in stoichiometric amounts by the production of S-adenosyl methionine (SAM) was measured using the PiColorLock Gold kit (Innova Biosciences, UK). Absolute product amounts were determined by comparison to a standard curve of potassium phosphate buffer, pH 8.0.

Test [3] concerns HCT116 MTAP-/-. The test can be described thus: Inhibition of cellular proliferation, 4 days, Cell Titer Glo, HCT116 MTAP-/-. To be noted: Homo sapiens, HCT-116, 96 h, IC50 score, read-out: 4 Day Relative Growth Inhibition (MTAP −/−). In kind it is cell-based. The protocol: as §1, §2, §3, §4
The subject of test [4] is SAM in HCT116 human colon carcinoma cell line with deleted MTAP gene. The test can be described thus: Cellular assay of target engagement (SAM): SAM level by LC-MS/MS after 72 hrs. In kind it is cell-based. The following applies: HCT-116, IC50 score, read-out: Cell 72 h SAM Inhibition (MTAP −/−). The protocol:
Cellular Assay of Target Engagement (SAM)
Measurement of MAT2A activity in cells was made by direct quantitation of the abundance of the product of its enzymatic activity, SAM. Cancer cells were treated with candidate MAT2A inhibitors for a suitable incubation period, and the cells were then lysed using a reagent which quenched any further enzyme activity. Soluble metabolites including SAM were collected and SAM itself was directly measured from the lysate using quantitative LC-MS/MS.
A typical assay was performed using an HCT116 human colon carcinoma cell line which was genetically engineered to delete the MTAP gene (commercially available from Horizon Discovery). This cell line was utilized because it was determined that loss of the MTAP gene predicts sensitivity to MAT2A inhibitors. Cells were plated in 96-well dishes at appropriate cell density. Following 24 hours, cells were then treated with the candidate MAT2A inhibitor. Prior to addition to cells, the compound was first serially diluted in 100% DMSO, typically as a 3-fold serial dilution starting at 500× top dose with 10 dose points including DMSO only control. Compound was then transferred to a working stock plate in cell culture media by adding 5 μL of compound in DMSO to 495 μL of cell culture media. This working stock was then added to cells via a further 5-fold dilution, by adding 25 μL of working stock to 100 μL of cells in culture media. Following compound addition, cells were incubated at 37° C./5% CO2 for 72 hrs.
To quantitate SAM levels following compound treatment, cells were gently washed once in ammonium carbonate buffer (75 mM at pH 7.4), placed on dry ice, and lysed with metabolite extraction buffer (80% cold methanol and 20% water (v/v) with acetic acid at 1M final concentration with 200 ng/mL deuterated d3-SAM as internal control). Following centrifugation at 4° C. at 3,200 rpm for 30 minutes, the supernatant was collected and stored at −80° C. until analysis by Liquid Chromatography with tandem Mass Spectrometry (LC-MS/MS). LC-MS/MS analysis was performed using an API6500 Mass Spectrometer (Sciex, Framingham, Mass., USA) operating in positive ion spray mode and equipped with a Waters UPLC Acquity (Waters, Milford, Mass., USA) BEH Amide column. Multiple Reaction Monitoring data was acquired for SAM and the d3-SAM standard, using a mass transition pair at m/z 399.2→250.1 and 402.2→250.1, respectively. In a typical LC-MS/MS analysis, the initial flow rate was 0.5 ml/min of 25% mobile phase A (acetonitrile and water at 5:95 (v/v) with 1% formic acid and 10 mM ammonium acetate) and 75% mobile phase B (acetonitrile and water at 95:5 (v/v) with 1% formic acid and 10 mM ammonium acetate), 0.2-0.5 minutes with 75%-35% mobile phase B, 25%-65% mobile phase A, at 0.5 min 65% mobile phase A and 35% mobile phase B, 1.0-1.1 minutes with 35%-75% mobile phase B, 65%-25% mobile phase A, at 1.1 min 25% mobile phase A and 75% mobile phase B with a total run time of 1.5 minutes.

Regarding `COc1ccc(-c2cc3cnc(NCC(F)(F)F)nc3n(-c3ccc(CCO)cc3)c2=O)cc1` [Example 129], the IC50 in test [1] was no less than 1000 nM; in test [2], less than 100 nM; in test [3] it was less than 100 nM; in test [4], less than 100 nM.
Turning to `COc1ccc(-c2cc3ccc(NCC(F)(F)F)nc3n(-c3ccc(OC(F)F)cc3)c2=O)cc1` [Example 130, 1-(4-(difluoromethoxy)phenyl)-3-(4-methoxyphenyl)-7-(2,2,2-trifluoroethylamino)-1,8-naphthyridin-2(1H)-one], the IC50 in test [1] is no less than 1000 nM; in test [2] it was less than 100 nM; in test [3], 100 to 1000 nM; in test [4] it was less than 100 nM.
For the compound `COc1ccc(-c2cc3ccc(NCC(F)(F)F)nc3n(-c3ccc(OC)cc3)c2=O)cc1` [Example 131], the IC50 was no less than 1000 nM in test [1], less than 100 nM in test [2], less than 100 nM in test [3] and less than 100 nM in test [4].
Regarding `Cn1cnc2ccc(-c3cc4ccc(NCC(F)(F)F)nc4n(-c4ccc(OC(F)F)cc4)c3=O)cc21` [Example 135], the IC50 in test [1] was no less than 1000 nM; in test [2], less than 100 nM; in test [3] it was less than 100 nM; in test [4], less than 100 nM.
Regarding `CCOc1ccc2cc(-c3ccc4nn(C)cc4c3)c(=O)n(-c3ccc(Cl)cc3)c2n1` [Example 138], the IC50 is 100 to 1000 nM in test [1], less than 100 nM in test [2], less than 100 nM in test [3] and less than 100 nM in test [4].
In the case of `CCOc1ccc2cc(-c3ccc(OC)cc3)c(=O)n(-c3ccc(OC(F)F)cc3)c2n1` [Example 139], the IC50 in test [1] was no less than 1000 nM; in test [2] it was less than 100 nM; in test [3] it was 100 to 1000 nM; in test [4] it was less than 100 nM.
Turning to `CCOc1ccc2cc(-c3ccc4nn(C)cc4c3)c(=O)n(-c3ccc(OC(F)F)cc3)c2n1` [Example 140], the IC50 in test [1] is 100 to 1000 nM; in test [2], less than 100 nM; in test [3], less than 100 nM; in test [4], less than 100 nM.
Take `CCOc1ccc2cc(-c3ccc4nn(C)cc4c3)c(=O)n(-c3ccc(OC)cc3)c2n1` [Example 142]: the IC50 in test [1] was no less than 1000 nM; in test [2] it was less than 100 nM; in test [3], less than 100 nM; in test [4], less than 100 nM.
`CCOc1ccc2cc(-c3ccc4nn(C)cc4c3)c(=O)n(-c3ccc(NC)nc3)c2n1` [Example 144]: the IC50 in test [1] is 100 to 1000 nM; in test [2], less than 100 nM; in test [3], less than 100 nM; in test [4], less than 100 nM.
Take `CCNc1ccc(-n2c(=O)c(-c3ccc4nn(C)cc4c3)cc3ccc(OCC)nc32)cn1` [Example 145]: the IC50 in test [1] was no less than 1000 nM; in test [2] it was less than 100 nM; in test [3] it was less than 100 nM; in test [4], less than 100 nM.
On to `CNc1ccc(-n2c(=O)c(-c3ccc4nn(C)cc4c3)cc3ccc(OCC(F)F)nc32)cn1` [Example 147], for which the IC50 was 100 to 1000 nM in test [1], less than 100 nM in test [2], less than 100 nM in test [3] and less than 100 nM in test [4].
Turning to `[2H]C([2H])([2H])Oc1ccc(-n2c(=O)c(-c3ccc4nn(C)cc4c3)cc3ccc(OCC)nc32)cc1` [Example 148], the IC50 is 100 to 1000 nM in test [1], less than 100 nM in test [2], less than 100 nM in test [3] and less than 100 nM in test [4].
As to `[2H]C([2H])([2H])Oc1ccc(-n2c(=O)c(-c3ccc4nn(C)cc4c3)cc3ccc(OCC(F)F)nc32)cc1` [Example 149], the IC50 in test [1] was 100 to 1000 nM; in test [2], less than 100 nM; in test [3], less than 100 nM; in test [4], less than 100 nM.
For `CCOc1ccc2cc(-c3ccc4nn(C)cc4c3)c(=O)n(-c3ccc4scnc4c3)c2n1` [Example 150], the IC50 in test [1] was no less than 1000 nM; in test [2], less than 100 nM; in test [3], less than 100 nM; in test [4], less than 100 nM.
